Test results from US20210371351A1, “MIXTURES COMPRISING AT LEAST TWO DIFFERENT NITRIFICATION INHIBITORS SELECTED FROM 2-(3,4-DIMETHYL-1H-PYRAZOL-1-YL)SUCCINIC ACID (DMPSA), 3,4-DIMETHYL PYRAZOLIUM GLYCOLATE (DMPG) AND OTHER COMPOUNDS” (BASF SE, priority 2017, published 2021).

Columns and labels:
[1] = system: nitrification; experiment: Example 3: soil column trial (soil Limburgerhof) with ammonium sulfate, DMPP, DMPSA or DMPP+DMPSA; leaching at 5° C., incubation 10 d or 20 d at 15° C.; NH4-N/NO3-N, % inhibition of NO3-N formation (Böhland), Colby; conditions: 0.05% DMPP, 0.45% DMPSA
Excerpt: The effect on NH4^+ retention and NH4^+ to NO3^− ratios in the soil after fertilization of ammonium sulfate with the addition of DMPP, DMPSA or a combination of DMPP and DMPSA was investigated in column trials simulating climatic conditions of spring time in central Europe. Soil Limburgerhof (pH(CaCl2) 6.8, texture: 73% sand; 24% silt, 3% clay) was filled dry into a glass column with an inner width of 4 cm. At the bottom 0.4 g cotton wool was placed above which a frit (Co. Robu, pore size 1) was placed above which 100 g of 2 mm sieved soil Limburgerhof was layered. The soil height in the column was about 7 cm. Before fertilization the soil was brought to about 60% of its water holding capacity (WHC) be adding 14.4 mL of deionized water. Per column 10 mg NH4—N as ammonium sulfate was fertilized or not (control) together or not with 0.05% DMPP (DMPP obtained from BASF SE), 0.45% DMPSA (DMPSA used as free acid obtained from BASF SE) and 0.05% DMPP plus 0.45% DMPSA (% of nitrification inhibitor w/w of NH4—N). Every treatment was replicated three times.
After fertilization, 50 mL demineralized water was carefully and slowly placed on top of each column which equals about 31 mm precipitation. After 24 h the eluate was collected and by sucking off the soil to bring it back to about 60% of its WHC. All handlings including soil preparation, fertilization and the temperature of the water for both wetting the soil and the artificial precipitation up to the collection of the eluate 24 h after fertilization was performed at 5° C.
(§1) Thereafter, the columns were incubated for 10 d or 20 d at constantly 15° C. in an incubator. After 7 d and 14 d, water was added by weight where needed to bring the soils uniformly to 60% WHC. After 10 d or 20 d, the soil was removed from the columns and extracted with 1% (w/w) K2SO4 solution by shaking for 2 h at room temperature. The filtrated extract was then analyzed for NH4^+ and NO3 colorimetrical by an autoanalyzer.
(§2) To calculate the inhibition of nitrate formation by the nitrification inhibitors during the incubation, the above-mentioned Böhland equation was used. To examine synergistic effects of the combination of DMPP+DMPSA the formula by Colby (Colby, S.R., “Calculating synergistic and antagonistic responses of herbicide Combinations”, Weeds, 15, pp. 20-22, 1967) was used. To determine background levels of NH4+ to NO3−, every treatment was also extracted immediately after fertilization and after leaching prior to the further incubation at 15° C. for 10 d or 20 d.

[2] = system: nitrification; experiment: Example 4: soil column trial (soil Limburgerhof), DMPSA and DMPP, other weight ratios; incubation 10 d at 15° C.; % inhibition of NO3-N formation (Böhland), Colby; conditions: 10 days of incubation at 15° C.
Excerpt: The effect on NH4+ retention and NH4+ to NO3− ratios in the soil after fertilization of ammonium sulfate with the addition of DMPP, DMPSA or a combination of DMPP and DMPSA was investigated in column trials simulating climatic conditions of spring time in central Europe. Soil Limburgerhof (pH(CaCl2) 6.8, texture: 73% sand; 24% silt, 3% clay) was filled dry into a glass column with an inner width of 4 cm. At the bottom 0.4 g cotton wool was placed above which a frit (Co. Robu, pore size 1) was placed above which 100 g of 2 mm sieved soil Limburgerhof was layered. The soil height in the column was about 7 cm. Before fertilization the soil was brought to about 60% of its water holding capacity (WHC) be adding 14.4 mL of deionized water. Per column 10 mg NH4—N as ammonium sulfate was fertilized or not (control) together or not with 0.005% or 0.015% DMPP (DMPP obtained from BASF SE), 0.45% DMPSA (DMPSA used as free acid obtained from BASF SE) and […] or 0.015% DMPP plus 0.45% DMPSA (% of nitrification inhibitor w/w of NH4-N). Every treatment was replicated three times. After fertilization, 50 mL demineralized water was carefully and slowly placed on top of each column which equals about 31 mm precipitation. After 24 h the eluate was collected and by sucking off the soil to bring it back to about 60% of its WHC. All handlings including soil preparation, fertilization and the temperature of the water for both wetting the soil and the artificial precipitation up to the collection of the eluate 24 h after fertilization was performed at 5° C.
as §1, with “d” for “d,”, “NH4+” for “NH4^+”, “NO3−” for “NO3”
as §2

[3] = 10 days of incubation at 15° C.
[4] = 20 days of incubation at 15° C.
[5] = 0.015% DMPP, alone or + 0.45% DMPSA

## Cc1c[nH]nc1C.O=P(O)(O)O [DMPP, 3,4-dimethyl pyrazole phosphate and/or 4,5-dimethyl pyrazole phosphate]
[1]; [3]
  During incubation: % inhibition of NO3—N formation by NI acc. to Böhland equation (1973) (MV): 69.8%
  Net NI effect % NH4 from fertilized NH4 (MV): 41.02%
  Ratio NH4—N/NO3—N (MV): 2.86
  Soil mg/100 g NH4—N (MV): 6.58 mg/100 g
  Soil mg/100 g NO3—N (MV): 2.34 mg/100 g
[1]; [4]
  During incubation: % inhibition of NO3—N formation by NI acc. to Böhland equation (1973) (MV): 14.9%
  Net NI effect % NH4 from fertilized NH4 (MV): 6.67%
  Ratio NH4—N/NO3—N (MV): 0.08
  Soil mg/100 g NH4—N (MV): 0.68 mg/100 g
  Soil mg/100 g NO3—N (MV): 8.60 mg/100 g
[2]; 0.005% DMPP, 0.45% DMPSA
  During incubation: % inhibition of NO3—N formation by NI acc. to Böhland equation (1973) (MV): −4.6%
  Net NI effect % NH4 from fertilized NH4 (MV): 6.22%
  Ratio NH4—N/NO3—N (MV): 0.10
  Soil mg/100 g NH4—N (MV): 0.65 mg/100 g
  Soil mg/100 g NO3—N (MV): 6.94 mg/100 g
[2]; [5]
  During incubation: % inhibition of NO3—N formation by NI acc. to Böhland equation (1973) (MV): 15.7%
  Net NI effect % NH4 from fertilized NH4 (MV): 11.49%
  Ratio NH4—N/NO3—N (MV): 0.21
  Soil mg/100 g NH4—N (MV): 1.18 mg/100 g
  Soil mg/100 g NO3—N (MV): 5.59 mg/100 g
